In general, amount remaining refers to what is left of the initial amount, in per cent.

Series [1] in a line: in vitro. The note with it: human, liver microsomes. For orientation: Liver microsomes are a subcellular fraction often used to study metabolism.
The nature of series [2]: in vitro. The following applies: rat, liver microsomes.

For `CS(=O)(=O)N1CCN(Cc2cn3cc(-c4cnc(N)nc4)nc(N4CCOCC4)c3n2)CC1`, the fraction remaining at 0.25 h, 1 µM in series [1] amounted to 93%; in series [2] it was 99%.

For the origin of these results see ChEMBL document CHEMBL4017467, “Generation of tricyclic imidazo[1,2-a]pyrazines as novel PI3K inhibitors by application of a conformational restriction strategy” (Bioorg Med Chem Lett, 2017).
